Test results as given in publication PMC11620503 (Antimicrobial Agents and Chemotherapy, 2024).
In brackets after ≈: the same amount, converted by molar mass. Where two headings read alike, the source gives them in different places.

Columns and labels:
[1] = system: MEM-nonsusceptible Enterobacterales; experiment: MIC, broth microdilution; format: cell-based; conditions: MEM-nonsusceptible Enterobacterales (127), cefiderocol 126 isolates
[2] = system: 55 isolates of A. baumannii; experiment: MIC, broth microdilution; format: cell-based, Acinetobacter baumannii; conditions: Acinetobacter baumannii (55)
[3] = system: Metallo-carbapenemase-producing Enterobacterales (11); experiment: MIC and MBC testing; format: cell-based; conditions: 11 metallo-carbapenemase-producing Enterobacterales; fixed BLI concentration (μg/mL) in label
[4] = system: serine-carbapenemase-producing isolates (Enterobacterales); experiment: MIC, broth microdilution; format: cell-based; conditions: Enterobacterales with serine-carbapenemases (80)
[5] = system: MBL-producing isolates (Enterobacterales); experiment: MIC, broth microdilution; format: cell-based; conditions: Enterobacterales with metallo-carbapenemases (74), cefiderocol 73 isolates
[6] = system: MEM-, imipenem/relebactam-, and ceftolozane/tazobactam-nonsusceptible P. aeruginosa; experiment: MIC, broth microdilution; format: cell-based, Pseudomonas aeruginosa; conditions: for CLSI MIC interpretation I (intermediate) / CLSI MIC interpretation R (resistant) / CLSI MIC interpretation S (susceptible): CLSI breakpoints, marked c: breakpoints for β-lactam alone; for MIC50 / MIC90: Pseudomonas aeruginosa, fixed concentration (μg/mL) in label; for MIC50: read-out: MIC50; for MIC90: read-out: MIC90
[7] = system: MEM-nonsusceptible Enterobacterales with metallo-carbapenemases; experiment: MIC, broth microdilution; format: cell-based; conditions: MEM-nonsusceptible Enterobacterales with metallo-carbapenemases (55), cefiderocol 54 isolates
[8] = system: Carbapenemase-producing A. baumannii (4); experiment: MIC and MBC testing; format: cell-based, Acinetobacter baumannii; conditions: 4 carbapenemase-producing A. baumannii; fixed BLI concentration (μg/mL) in label; text: MBC/MIC ratios
[9] = system: MEM-nonsusceptible Enterobacterales with serine-carbapenemases; experiment: MIC, broth microdilution; format: cell-based; conditions: MEM-nonsusceptible Enterobacterales with serine-carbapenemases (58)
[10] = system: Serine-carbapenemase-producing Enterobacterales (6); experiment: MIC and MBC testing; format: cell-based; conditions: 6 serine-carbapenemase-producing Enterobacterales; fixed BLI concentration (μg/mL) in label
96 P. aeruginosa = experiment: MIC, broth microdilution; format: cell-based, Pseudomonas aeruginosa; conditions: Pseudomonas aeruginosa (96)
[11] = system: 207 Enterobacterales including carbapenem-resistant isolates; experiment: MIC, broth microdilution; format: cell-based
OXA-65 = OXA-65 (Acinetobacter baumannii, UniProt Q58XD3); experiment: Ki app determination (Waley's method); conditions: read-out: Ki app; OXA-65; means from three independent studies
PDC-11 = PDC-11 (Pseudomonas aeruginosa, UniProt P24735, form not given, species not given); experiment: Ki app determination (Waley's method); conditions: read-out: Ki app, means from three independent studies
OXA-24 = OXA-24 (Acinetobacter baumannii, UniProt Q8RLA6); experiment: Ki app determination (Waley's method); conditions: read-out: Ki app; OXA-24; means from three independent studies
CTX-M-14 = CTX-M-14 (Escherichia coli, UniProt Q9L5C7); experiment: Ki app determination (Waley's method); conditions: read-out: Ki app; CTX-M-14; means from three independent studies
IMP-1 = IMP-1 (Serratia marcescens, UniProt P52699); experiment: Ki app determination (Waley's method); conditions: read-out: Ki app; IMP-1; means from three independent studies
VIM-2 = VIM-2 (Escherichia coli, UniProt Q5U7L7); experiment: Ki app determination (Waley's method); conditions: read-out: Ki app; VIM-2; means from three independent studies
OXA-23 = OXA-23 (Acinetobacter baumannii, UniProt Q9L4P2); experiment: Ki app determination (Waley's method); conditions: read-out: Ki app; OXA-23; means from three independent studies
SHV-5 = SHV-5 (Klebsiella pneumoniae, UniProt P0A3M1); experiment: Ki app determination (Waley's method); conditions: read-out: Ki app; SHV-5; means from three independent studies
SHV-12 = SHV-12 (Klebsiella pneumoniae, UniProt P0A3M1, L31Q); experiment: Ki app determination (Waley's method); conditions: read-out: Ki app; SHV-12; means from three independent studies
CTX-M-15 = CTX-M-15 (Escherichia coli, UniProt Q9EXV5); experiment: Ki app determination (Waley's method); conditions: read-out: Ki app; CTX-M-15; means from three independent studies
SHV-2 = SHV-2 (Klebsiella pneumoniae, UniProt P0A9Z8); experiment: Ki app determination (Waley's method); conditions: read-out: Ki app; SHV-2; means from three independent studies
IMP-6 = IMP-6 (Serratia marcescens, UniProt P52699, S214G); experiment: Ki app determination (Waley's method); conditions: read-out: Ki app; IMP-6; means from three independent studies
KPC-38 = KPC-38 (Klebsiella pneumoniae, UniProt Q9F663); experiment: Ki app determination (Waley's method); conditions: read-out: Ki app, means from three independent studies
ACT-17 = ACT-17 (Enterobacter cloacae complex, UniProt Q8KP20); experiment: Ki app determination (Waley's method); conditions: read-out: Ki app, means from three independent studies
OXA-72 = OXA-72 (Acinetobacter baumannii, UniProt Q5XQU0); experiment: Ki app determination (Waley's method); conditions: read-out: Ki app; OXA-72; means from three independent studies
KPC-3 = KPC-3 (Klebsiella pneumoniae, UniProt Q9F663, H272Y); experiment: Ki app determination (Waley's method); conditions: read-out: Ki app; KPC-3; means from three independent studies
OXA-66 = OXA-66 (Acinetobacter baumannii, UniProt Q58XD2); experiment: Ki app determination (Waley's method); conditions: read-out: Ki app; OXA-66; means from three independent studies
OXA-48 = OXA-48 (Klebsiella pneumoniae, UniProt Q6XEC0); experiment: Ki app determination (Waley's method); conditions: read-out: Ki app; OXA-48; means from three independent studies
CTX-M-27 = CTX-M-27 (Escherichia coli, UniProt Q840M4); experiment: Ki app determination (Waley's method); conditions: read-out: Ki app; CTX-M-27; means from three independent studies
KPC-2 = KPC-2 (Klebsiella pneumoniae, UniProt Q9F663); experiment: Ki app determination (Waley's method); conditions: read-out: Ki app; KPC-2; means from three independent studies
VIM-1 = VIM-1 (Pseudomonas aeruginosa, UniProt A0A0F7KYQ8); experiment: Ki app determination (Waley's method); conditions: read-out: Ki app; VIM-1; means from three independent studies
[12] = CLSI breakpoints, marked c: breakpoints for β-lactam alone, tigecycline: FDA breakpoints
[13] = fixed concentration (μg/mL) in label, read-out: MIC50
[14] = fixed concentration (μg/mL) in label, read-out: MIC90
[15] = CLSI breakpoints, marked c: breakpoints for β-lactam alone
[16] = Ceftolozane/tazobactam-nonsusceptible Pseudomonas aeruginosa (45)
[17] = Imipenem/relebactam-nonsusceptible Pseudomonas aeruginosa (43)
[18] = MEM-nonsusceptible Pseudomonas aeruginosa (76)
[19] = All Enterobacterales (207), cefiderocol 205 isolates, CLSI breakpoints, marked c: breakpoints for β-lactam alone, tigecycline: FDA breakpoints

Which results are given for `CC(C)(O/N=C(\C(=O)N[C@@H]1C(=O)N2C(C(=O)[O-])=C(C[n+]3ccccc3)CS[C@H]12)c1csc(N)n1)C(=O)O` [CAZ, ceftazidime]?
CLSI MIC interpretation I (intermediate) [1, 12]: 3.1%; CLSI MIC interpretation R (resistant) [1, 12]: 87.4%; CLSI MIC interpretation S (susceptible) [1, 12]: 9.4%; MIC50 [1, 13]: > 32 µg/mL; MIC90 [1, 14]: > 32 µg/mL; CLSI MIC interpretation I (intermediate) [2, 15]: 1.8%; CLSI MIC interpretation R (resistant) [2, 15]: 94.5%; CLSI MIC interpretation S (susceptible) [2, 15]: 3.6%; MIC50 [2, 13]: > 32 µg/mL; MIC90 [2, 14]: > 32 µg/mL; MIC/MBC range [3]: ≥1; CLSI MIC interpretation I (intermediate) [4, 12]: 2.5%; CLSI MIC interpretation R (resistant) [4, 12]: 73.8%; CLSI MIC interpretation S (susceptible) [4, 12]: 23.8%; MIC50 [4, 13]: > 32 µg/mL; MIC90 [4, 14]: > 32 µg/mL; CLSI MIC interpretation I (intermediate) [5, 12]: 0%; CLSI MIC interpretation R (resistant) [5, 12]: 98.6%; CLSI MIC interpretation S (susceptible) [5, 12]: 1.4%; MIC50 [5, 13]: > 32 µg/mL; MIC90 [5, 14]: > 32 µg/mL; CLSI MIC interpretation I (intermediate) [6, 16]: 4.4%; CLSI MIC interpretation R (resistant) [6, 16]: 93.3%; CLSI MIC interpretation S (susceptible) [6, 16]: 2.2%; CLSI MIC interpretation I (intermediate) [6, 17]: 7%; CLSI MIC interpretation R (resistant) [6, 17]: 83.7%; CLSI MIC interpretation S (susceptible) [6, 17]: 9.3%; CLSI MIC interpretation I (intermediate) [6, 18]: 6.6%; CLSI MIC interpretation R (resistant) [6, 18]: 68.4%; CLSI MIC interpretation S (susceptible) [6, 18]: 25%; MIC50 [6, 16]: > 32 µg/mL; MIC90 [6, 16]: > 32 µg/mL; MIC50 [6, 17]: > 32 µg/mL; MIC90 [6, 17]: > 32 µg/mL; MIC50 [6, 18]: 32 µg/mL (≈ 58.5 µM); MIC90 [6, 18]: > 32 µg/mL; CLSI MIC interpretation I (intermediate) [7, 12]: 0%; CLSI MIC interpretation R (resistant) [7, 12]: 98.2%; CLSI MIC interpretation S (susceptible) [7, 12]: 1.8%; MIC50 [7, 13]: > 32 µg/mL; MIC90 [7, 14]: > 32 µg/mL; MBC/MIC ratio range [8]: 1–2; CLSI MIC interpretation I (intermediate) [9, 12]: 1.7%; CLSI MIC interpretation R (resistant) [9, 12]: 82.8%; CLSI MIC interpretation S (susceptible) [9, 12]: 15.5%; MIC50 [9, 13]: > 32 µg/mL; MIC90 [9, 14]: > 32 µg/mL; MIC/MBC range [10]: 1–256; CLSI MIC interpretation I (intermediate) (96 P. aeruginosa; [15]): 6.3%; CLSI MIC interpretation R (resistant) (96 P. aeruginosa; [15]): 56.3%; CLSI MIC interpretation S (susceptible) (96 P. aeruginosa; [15]): 37.5%; MIC50 (96 P. aeruginosa; [13]): 32 µg/mL (≈ 58.5 µM); MIC90 (96 P. aeruginosa; [14]): > 32 µg/mL; CLSI MIC interpretation I (intermediate) [11, 19]: 2.4%; CLSI MIC interpretation R (resistant) [11, 19]: 82.1%; CLSI MIC interpretation S (susceptible) [11, 19]: 15.5%; MIC50 ([11]; read-out: MIC50): > 32 µg/mL; MIC90 ([11]; read-out: MIC90): > 32 µg/mL

With `NCCN[C@H]1CC[C@H](CC(=O)N[C@H]2Cc3cccc(C(=O)O)c3OB2O)CC1` [Tanibobactam, taniborbactam] as the compound, how does the Ki (OXA-65) read?
The Ki was over 100000 nM.

What about the Ki (PDC-11) of the same compound?
Its Ki is 34.6 ± 2.2 nM.

And the Ki (OXA-24)?
Its Ki is 2080 nM.

What about the Ki (CTX-M-14) of the same compound?
Its Ki is 0.0607 ± 0.0257 nM.

What about the Ki (IMP-1) of the same compound?
Its Ki is over 100000 nM.

What about the Ki (VIM-2) of the same compound?
Its Ki is 322 ± 50 nM.

And the Ki (OXA-23)?
The Ki was over 100000 nM.

What about the Ki (SHV-5) of the same compound?
Its Ki is 5.9 ± 1.8 nM.

And the Ki (SHV-12)?
Its Ki is 4.73 ± 0.182 nM.

And the Ki (CTX-M-15)?
Its Ki is 0.0245 ± 0.0103 nM.

And the Ki (SHV-2)?
Its Ki is 20 ± 2.39 nM.

And the Ki (IMP-6)?
The Ki was over 100000 nM.

What about the Ki (KPC-38) of the same compound?
Its Ki is 0.617 ± 0.0841 nM.

And the Ki (ACT-17)?
Its Ki is 12.6 ± 1.55 nM.

What about the Ki (OXA-72) of the same compound?
The Ki was 25200 nM.

What about the Ki (KPC-3) of the same compound?
The Ki was 0.947 ± 0.259 nM.

What about the Ki (OXA-66) of the same compound?
The Ki was 61700 nM.

And the Ki (OXA-48)?
The Ki was 204 ± 31 nM.

And the Ki (CTX-M-27)?
Its Ki is 0.0344 ± 0.013 nM.

What about the Ki (KPC-2) of the same compound?
Its Ki is 1.1 ± 0.229 nM.

What about the Ki (VIM-1) of the same compound?
The Ki was 271 ± 46.7 nM.
